Literature values in PMC3411352 (Biopolymers, 2011).
“And” between values parts separate entries of the source, which are not always exact repeats. Equal values may be shown once. Read-outs that look alike come from different tables or passages of the source.

Tests used:
[1] = molecular target: T1, rat κ opioid receptors (Rattus norvegicus, UniProt P34975); settings: relative to Dyn A (1-13)NH2 (0% control)
[2] = molecular target: T1, rat κ opioid receptors; settings: for Ki: read-out: Ki ± SEM κ, κ opioid receptors
[3] = molecular target: κ opioid receptors
[4] = molecular target: rat μ opioid receptors (Rattus norvegicus, UniProt P33535); settings: read-out: Ki ± SEM μ
[5] = molecular target: κ opioid receptors; settings: selectivity

T1 sequence (P34975 whole entry): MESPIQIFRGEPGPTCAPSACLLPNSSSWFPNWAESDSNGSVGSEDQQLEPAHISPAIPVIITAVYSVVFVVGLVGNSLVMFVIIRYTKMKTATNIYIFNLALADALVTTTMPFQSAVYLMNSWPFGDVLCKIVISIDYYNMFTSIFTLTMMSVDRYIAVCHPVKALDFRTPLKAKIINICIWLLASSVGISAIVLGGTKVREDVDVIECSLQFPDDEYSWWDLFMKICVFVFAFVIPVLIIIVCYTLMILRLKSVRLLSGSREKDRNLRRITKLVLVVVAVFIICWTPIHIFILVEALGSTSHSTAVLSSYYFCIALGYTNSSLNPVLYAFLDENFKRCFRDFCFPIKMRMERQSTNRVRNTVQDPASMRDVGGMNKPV
Sequence of rat μ opioid receptors (P33535 whole entry): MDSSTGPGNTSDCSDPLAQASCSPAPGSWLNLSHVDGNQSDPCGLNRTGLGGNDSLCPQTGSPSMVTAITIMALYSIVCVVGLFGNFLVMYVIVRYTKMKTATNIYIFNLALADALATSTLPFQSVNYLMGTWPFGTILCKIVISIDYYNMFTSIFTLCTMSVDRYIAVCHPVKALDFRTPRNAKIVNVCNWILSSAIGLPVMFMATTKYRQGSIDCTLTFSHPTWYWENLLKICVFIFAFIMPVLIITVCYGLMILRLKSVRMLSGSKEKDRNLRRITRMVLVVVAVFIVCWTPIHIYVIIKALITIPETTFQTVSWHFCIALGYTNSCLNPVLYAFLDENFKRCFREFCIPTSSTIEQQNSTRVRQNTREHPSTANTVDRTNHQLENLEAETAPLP

Substance: Ac[Phe^1,2,3,Arg^4,D-Ala^8]Dyn A(1-11)-NH2 [Compound 1]
- AC % control @ 10 μM [1]: 88 ± 8 % control
- Ki [2]: 10 ± 3 nM

Substance: [(2S)-Mdp^1]Dyn A-(1-11)NH2 [Dynantin]
- Ki ([3]; read-out: Ki (κ)): 0.82 nM
- Ki ratio (κ/μ/δ) ([3]; selectivity): 1/259/198

Substance: [NMePhe^1]arodyn [Compound 2]
- AC % control @ 10 μM [1]: 86 ± 1 % control
- Ki [4]: 5060 ± 790 nM
- Ki [2]: 4.6 nM and 4.56 nM
- Ki ratio (μ/κ) ([2]; selectivity κ over μ): 1100

Substance: [Pro^3]Dyn A-(1-11)NH2
- Ki ratio (κ/μ/δ) [5]: 1/2110/3260
